From US9441012B2, “Fluorinated epoxyketone-based compounds and uses thereof as proteasome inhibitors” (FLUORINOV PHARMA INC., priority 2012, dated 2016)

Columns and labels:
Experiment in all cases: NCI 60 human tumor cell line screen (SRB)
Format in all cases: cell-based
BT-549 = BT-549 (Breast Cancer); 48 h
How it was run: (§1)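 Cells plated 24 h before dosing, with time-zero plates TCA-fixed at drug addition; five concentrations (10-fold or ½-log dilutions) added and incubated 48 h at 37 °C, 5% CO2. Adherent cells fixed with 10% TCA, stained with 0.4% SRB, absorbance read at 515 nm; GI50, TGI and LC50 derived from percentage growth versus time zero and control.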

786-0 = 786-0 (Renal Cancer); 48 h
How it was run: as §1

SF-268 = SF-268 (CNS Cancer); 48 h
How it was run: as §1

A498 = A498 (Renal Cancer); 48 h
How it was run: as §1

OVCAR-3 = OVCAR-3 (Ovarian Cancer); 48 h
How it was run: as §1

IGROV1 = IGROV1 (Ovarian Cancer); 48 h
How it was run: as §1

M14 = M14 (Melanoma); 48 h
How it was run: as §1

NCI-H23 = NCI-H23 (Non-Small Cell Lung Cancer); 48 h
How it was run: as §1

NCI-H226 = NCI-H226 (Non-Small Cell Lung Cancer); 48 h
How it was run: as §1

LOX IMVI = LOX IMVI (Melanoma); 48 h
How it was run: as §1

TK-10 = TK-10 (Renal Cancer); 48 h
How it was run: as §1

K-562 = K-562 (Leukemia); 48 h
How it was run: as §1

HCT-15 = HCT-15 (Colon Cancer); 48 h
How it was run: as §1

SMILES	Log10GI50 (BT-549)	Log10LC50 (BT-549)	Log10TGI50 (BT-549)	Log10GI50 (786-0)	Log10LC50 (786-0)	Log10TGI50 (786-0)	Log10GI50 (SF-268)	Log10LC50 (SF-268)	Log10TGI50 (SF-268)	Log10GI50 (A498)	Log10LC50 (A498)	Log10TGI50 (A498)	Log10GI50 (OVCAR-3)	Log10LC50 (OVCAR-3)	Log10TGI50 (OVCAR-3)	Log10GI50 (M14)	Log10LC50 (M14)	Log10TGI50 (M14)	Log10GI50 (NCI-H23)	Log10LC50 (NCI-H23)	also measured
C[C@]1(C(=O)[C@H](Cc2ccccc2)NC(=O)[C@H](COC(F)F)NC(=O)[C@H](COC(F)F)NC(=O)CN2CCOCC2)CO1 [Example 26, (S)-N-{(S)-1-[(S)-1-Benzyl-2-((R)-2-methyl-oxiranyl)-2-oxo-ethylcarbamoyl]-2-difluoromethoxyethyl}-3-difluoromethoxy-2-(2-morpholin-4-yl-acetylamino)-propio-namide]	−7.73	−7.05	−7.39	−7.20	−5.44	−6.49	−7.60	>−4.00	−7.14	−7.61	−6.34	−7.03	−7.66	−6.97	−7.33	−7.48	>−4.00	−6.71	−7.62	−5.64	Log10GI50 (IGROV1): −7.43; Log10LC50 (IGROV1): >−4.00; Log10TGI50 (NCI-H23): −7.13; Log10GI50 (NCI-H226): −7.77; Log10LC50 (NCI-H226): −7.10; Log10TGI50 (NCI-H226): −7.43; Log10GI50 (LOX IMVI): −7.73; Log10LC50 (LOX IMVI): −7.10; Log10TGI50 (LOX IMVI): −7.42; Log10GI50 (TK-10): −7.49; Log10LC50 (TK-10): >−4.00; Log10TGI50 (TK-10): −6.07; Log10GI50 (K-562): −7.41; Log10LC50 (K-562): >−4.00; Log10TGI50 (K-562): >−4.00; Log10GI50 (HCT-15): −6.47; Log10LC50 (HCT-15): >−4.00; Log10TGI50 (HCT-15): >−4.00
CC(C)C[C@H](NC(=O)[C@H](Cc1ccccc1)NC(=O)[C@H](COC(F)F)NC(=O)CN1CCOCC1)C(=O)[C@@]1(C)CO1 [Example 25, (2S)-2-[[(2S)-3-(difluoromethoxy)-2-[(2-morpholinoacetyl)amino]propanoyl]amino]-N-[(1S)-3-methyl-1-[(2R)-2-methyloxirane-2-carbonyl]butyl]-3-phenyl-propanamide]	−7.73	−7.05	−7.39	−7.20	−5.44	−6.49	−7.60	>−4.00	−7.14	−7.61	−6.34	−7.03	−7.66	−6.97	−7.33	−7.48	>−4.00	−6.71	−7.62	−5.64	Log10GI50 (IGROV1): −7.43; Log10LC50 (IGROV1): >−4.00; Log10TGI50 (IGROV1): −6.38; Log10TGI50 (NCI-H23): −7.13; Log10GI50 (NCI-H226): −7.77; Log10LC50 (NCI-H226): −7.10; Log10TGI50 (NCI-H226): −7.43; Log10GI50 (LOX IMVI): −7.73; Log10LC50 (LOX IMVI): −7.10; Log10TGI50 (LOX IMVI): −7.42; Log10GI50 (TK-10): −7.49; Log10LC50 (TK-10): >−4.00; Log10TGI50 (TK-10): −6.07; Log10GI50 (K-562): −7.41; Log10LC50 (K-562): >−4.00; Log10TGI50 (K-562): >−4.00; Log10GI50 (HCT-15): −6.47; Log10LC50 (HCT-15): >−4.00; Log10TGI50 (HCT-15): >−4.00
C[C@]1(C(=O)[C@H](Cc2ccccc2)NC(=O)[C@H](Cc2ccccc2)NC(=O)[C@H](COC(F)F)NC(=O)CN2CCOCC2)CO1 [Example 29]	−7.26	−4.94	−6.59	−6.55	−4.87	−5.96	−7.27	>−4.00	−6.50	−6.68	−5.47	−6.11	−7.35	−5.66	−6.71	−7.21	>−4.00	−5.85	−7.21	>−4.00	Log10GI50 (IGROV1): −6.67; Log10LC50 (IGROV1): >−4.00; Log10TGI50 (IGROV1): >−4.00; Log10TGI50 (NCI-H23): −5.55; Log10GI50 (NCI-H226): −7.64; Log10LC50 (NCI-H226): −6.51; Log10TGI50 (NCI-H226): −7.24; Log10GI50 (LOX IMVI): −7.50; Log10LC50 (LOX IMVI): −6.35; Log10TGI50 (LOX IMVI): −6.90; Log10GI50 (TK-10): −6.55; Log10LC50 (TK-10): >−4.00; Log10TGI50 (TK-10): −5.10; Log10GI50 (K-562): −7.00; Log10LC50 (K-562): >−4.00; Log10TGI50 (K-562): >−4.00; Log10GI50 (HCT-15): −6.20; Log10LC50 (HCT-15): >−4.00; Log10TGI50 (HCT-15): >−4.00
Cc1ncc(C(=O)N[C@@H](COC(F)F)C(=O)N[C@@H](COC(F)F)C(=O)N[C@@H](Cc2ccccc2)C(=O)[C@@]2(C)CO2)s1 [Example 1, 2-methyl-thiazole-5-carboxylic acid ((S)-1-{(S)-1-[(S)-1-benzyl-2-((R)-2-methyloxiranyl)-2-oxo-ethylcarbamoyl]-2-difluoromethoxyethylcarbamoyl}-2-difluoromethoxyethyl)-amide]	−7.49	−5.74	−6.87	−6.43	>−4.00	−4.62	−6.98	>−4.00	−5.90	−8.00	−4.88	−6.38	−7.46	−6.30	−6.90	−6.86	−4.35	−6.24	−6.85	−5.27	Log10TGI50 (NCI-H23): −5.92; Log10GI50 (NCI-H226): −7.44; Log10TGI50 (NCI-H226): −6.84; Log10GI50 (LOX IMVI): −6.96; Log10LC50 (LOX IMVI): −6.16; Log10TGI50 (LOX IMVI): −6.56; Log10GI50 (TK-10): −6.71; Log10TGI50 (TK-10): −6.06; Log10GI50 (K-562): −6.50; Log10LC50 (K-562): >−4.00; Log10TGI50 (K-562): >−4.00; Log10GI50 (HCT-15): −5.65; Log10LC50 (HCT-15): −4.16; Log10TGI50 (HCT-15): −4.93
